Assay results reported in US20240390490A1, “PHARMACEUTICAL COMPOSITIONS FOR THE TREATMENT OF CANCERS” (Rutgers, The State University of New Jersey, priority 2021, published 2024).
Like-named read-outs stand apart in the source and are kept apart here.

Tests used:
[1] = cited from earlier work
[2] = system: MDA-MB-468 and T47D cells; assay: Cell cycle analysis (PI staining); type: cell-based, human; conditions: 100 μM
Method: Cell cycle analysis of breast cancer cells was carried out using propidium iodide (PI) staining protocol according to the manufacturer's instructions (Nexcelom Bioscience LLC, Lawrence, MA). […] Then, cells were harvested by trypsinization, centrifuged at 2000 rpm for 5 minutes, washed with PBS (pH 7.4), and fixed in ice cold 100% ethanol for 15 minutes. The cells were spun down and resuspended in 150 μl of PI-staining solution provided with the Cellometer PI Cell Cycle Kit. The PI-stained cells were then subjected to analysis in the Cellometer Vision instrument (Nexcelom Bioscience LLC) and the data was captured on Cellometer Vision CBA software (Nexcelom Bioscience LLC) and analyzed by FCS Express 4 software (Molecule Devices, Corp., Sunnyvale, CA). Differences in fluorescence intensity were used to determine the percentage of cells in each phase of the cell cycle and represented as histograms for control and drug-treated samples.

[3] = system: MDA-MB-231, MDA-MB-468, and T47D cells; assay: Western blot of apoptotic regulatory proteins in breast cancer cells; type: cell-based, human; conditions: 100-μM, 48 hours (Example 9)
Method: (§1) For protein analyses, tumor tissues from in vivo experiments, enriched NK cells from the spleen, and NK-92 MI cancer cell co-incubated samples were lysed with a buffer containing protease and phosphatase inhibitors (25 mM Tris-HCl, pH 7.4; 150 mM NaCl; 1% Nonidet P-40; 1 mM EDTA; and 5% glycerol with Pierce Halt Protease Inhibitor). Protein ([…]) from total lysate was loaded and separated on a 4-20% SDS-PAGE and transferred overnight to polyvinylidene difluoride membranes. Membranes were incubated with primary Ab for 12 hours at 4° C. in blocking buffer, 5% w/v nonfat dry milk in TBS, and 0.1% Tween 20. The following primary antibodies were purchased from Santa Cruz Biotechnology (Santa Cruz, CA): anti-perforin rabbit polyclonal (1:250), anti-granzyme B mouse monoclonal (1:200), anti-IFN-γ mouse monoclonal (1:250), anti-Snail (1:200), anti-Slug (1:200), and anti-Twist. Anti-E-cadherin (1:250), anti-N-cadherin (1:250), and anti-NKG2D goat polyclonal (1:500) were all from Abcam (Cambridge, MA). Membranes were washed and incubated with peroxidase-conjugated secondary Abs (1:5000; Vector Laboratories) for 1 hour at room temperature. Membranes were incubated with ECL western blot chemiluminescence reagent (Pierce) and exposed to x-ray film, which was developed, and densitometry was performed using Image J analysis software (National Institutes of Health). Each protein was normalized to corresponding intensities for β-actin.
The effects on apoptotic regulatory protein levels and signaling pathway were determined by treating MDA-MB-231, MDA-MB-468, and T47D cells with a 100-μM concentration of the drugs alone or in combination or vehicle alone for 48 hours. After the treatment period, cell were extracted and used for Western blot analysis of anti-apoptotic p-Bcl-xL and p-Bcl2, effector proteins such as p-Bax, pro-apoptotic molecule p-Bim, effector caspase 3 and Cytochrome c levels. Representative blots and mean densitometric values are presented as ratio of β-actin in the histograms. Data presented are mean±SEM (n=5-6 samples/group) and were analyzed using one-way ANOVA with the Newman-Keuls multiple comparisons post hoc test.

[4] = system: MDA-MB-231-cell-derived xenografts; assay: Histopathology, immunohistochemistry and western blot of xenograft tumors; type: in vivo, rat; conditions: for level of CC3 in tumor tissue / levels of Bcl-xL and Bcl-2 in tumor tissue: western blot; for level of E-cadherin in tumors / level of N-cadherin in tumors / levels of Snail, Slug, and Twist in tumors: immunoblotting
Method: At the end of the experiment, a portion of tumor tissues was fixed in 10% neutral buffered formalin overnight and embedded in paraffin, was cut into 5-μm-thick sections, and stained with H&E according to previous publications (8). Representative areas of tumor were analyzed for the presence of tumor cells and photographs were captured under a light microscope (20× magnification) as previously described.
as §1
Thin paraffin sections (5 μm) of tumors were stained using the ABC Elite Vectastain Kit (Vector Labs) according to the manufacturer's instructions using various primary antibodies. Details of all primary antibodies used are described above. In addition, cell proliferation-associated antigen (Ki-67; 1:200) were purchased from Abcam. After the primary antibody incubation and PBS wash, sections were incubated with peroxidase-coupled anti-rabbit Ig ImmPRESS reagent (Vector Laboratories, Inc.). Antigen localization was achieved by using the 3,3′-diaminobenzidine-peroxidase reaction, and sections were dehydrated, and cover slipped. To evaluate the immunohistochemical staining, sections were photographed using a Nikon-TE 2000 inverted microscope. Intensity of staining was categorized as negative and strongly positive (27). Brown-stained spots are immuno positive cells. Data are means±SEM obtained from 3 serial sections of 5 to 6 animals in each group.

MDA-MB-468 cells = assay: cells; conditions: read-out: Cell Viability IC50 (μM) ± SEM
Method: (§2) Cells in media with vehicle treatment are considered control wells. MTT (3-(4,5-dimethyl-2-thiazolyl)-2,5-diphenyl-2H-tetrazolium bromide) was prepared as a stock solution of 5 mg/mL in 1× phosphate-buffered saline (PBS, pH 7.2). At the end of the drug treatment period (24 or 48 or 72 hours), 10 μL of MTT solution was added to each well. After incubation for 4 hours at 37° C., 100 μL of solubilizing buffer (10% sodium dodecyl sulfate dissolved in 0.01 N HCl) was added to each well. After a 15-minute incubation at 37° C., the 96-well plate was read by a plate reader at 590 nm for absorbance density values to determine the cell viability. The cell viability (percentage of control) is calculated by using the following formula: (OD of treated well (−blank))/(mean OD control well (−blank))×100. […] Drug effects on these cells were determined in quadruplicate wells in three independent experiments.

MDA-MB-231 cells = assay: cells; conditions: read-out: Cell Viability IC50 (μM) ± SEM
Method: as §2

T47D cells = assay: cells
Method: as §2

NK-92 MI cells = assay: Cytotoxic protein levels in human NK cells (Western blot); type: cell-based; conditions: 50 μM, 12 hours
Method: The human NK cell line NK-92 MI (ATCC) was maintained in alpha minimum essential medium (MEM) without ribonucleosides and deoxyribonucleosides (Gibco) supplemented with final concentrations of 12-5% FBS, 12-5% horse serum (ATCC), 2 mM L-glutamine (Gibco), 1.5 g/L sodium bicarbonate (Gibco), 0.2 mM inositol (Sigma), 0.1 mM 2-mercaptoethanol (Gibco), and 0.02 mM folic acid (Sigma).
For protein analyses, tumor tissues from in vivo experiments, enriched NK cells from the spleen, and NK-92 MI cancer cell co-incubated samples were lysed with a buffer containing protease and phosphatase inhibitors (25 mM Tris-HCl, pH 7.4; 150 mM NaCl; 1% Nonidet P-40; 1 mM EDTA; and 5% glycerol with Pierce Halt Protease Inhibitor). Protein (50 mg) from total lysate was loaded and separated on a 4-20% SDS-PAGE and transferred overnight to polyvinylidene difluoride membranes. Membranes were incubated with primary Ab for 12 hours at 4° C. in blocking buffer, 5% w/v nonfat dry milk in TBS, and 0.1% Tween 20. The following primary antibodies were purchased from Santa Cruz Biotechnology (Santa Cruz, CA): anti-perforin rabbit polyclonal (1:250), anti-granzyme B mouse monoclonal (1:200), anti-IFN-γ mouse monoclonal (1:250), anti-Snail (1:200), anti-Slug (1:200), and anti-Twist. Anti-E-cadherin (1:250), anti-N-cadherin (1:250), and anti-NKG2D goat polyclonal (1:500) were all from Abcam (Cambridge, MA). […]

## O=C1CC[C@@]2(O)[C@H]3Cc4ccc(O)c5c4[C@@]2(CCN3CC2CC2)[C@H]1O5 [NTX, 17-(cyclopropylmethyl)-4,5α-epoxy-3,14-dihydroxymorphinan-6-one]
[1]
  water solubility: not water soluble
[2]
  number of cells in the G0/G1 cycle: moderately but not significantly reduced
[3]
  anti-apoptotic Bcl-xL, p-Bcl-xL, Bcl-2, and p-Bcl-2: downregulated
  levels of Bax, p-Bax and p-Bim: increased
  levels of Cytochrome c: increased
[4]
  level of CC3 in tumor tissue: increased
  levels of Bcl-xL and Bcl-2 in tumor tissue: decreased
MDA-MB-468 cells; Homo sapiens, MDA-MB-468, 24 h
  IC50: 122.4 ± 0.63 µM
MDA-MB-468 cells; Homo sapiens, MDA-MB-468, 48 h
  IC50: 121 ± 1.82 µM
MDA-MB-468 cells; Homo sapiens, MDA-MB-468, 72 h
  IC50: 120 ± 1.23 µM
MDA-MB-231 cells; Homo sapiens, MDA-MB-231, 24 h
  IC50: 140.8 ± 0.15 µM
MDA-MB-231 cells; Homo sapiens, MDA-MB-231, 48 h
  IC50: 120.5 ± 0.38 µM
MDA-MB-231 cells; Homo sapiens, MDA-MB-231, 72 h
  IC50: 121 ± 1.65 µM
T47D cells; Homo sapiens, 24 h, read-out: Cell Viability IC50 (μM) ± SEM
  IC50: 125 ± 1.37 µM
T47D cells; Homo sapiens, 48 h, read-out: Cell Viability IC50 (μM) ± SEM
  IC50: 122 ± 1.72 µM
T47D cells; Homo sapiens, 72 h, read-out: Cell Viability IC50 (μM) ± SEM
  IC50: 120 ± 1.61 µM

## CC(C)NCC(O)COc1cccc2ccccc12 (stereo not shown) [PRO, propranolol]
NK-92 MI cells
  granzyme B levels: moderately elevated
  perforin levels: moderately elevated
[3]
  anti-apoptotic Bcl-xL, p-Bcl-xL, Bcl-2, and p-Bcl-2: downregulated
  levels of Bax, p-Bax and p-Bim: increased
  levels of Cytochrome c: increased
[4]
  level of E-cadherin in tumors: increase
  level of N-cadherin in tumors: decrease
  levels of Snail, Slug, and Twist in tumors: reduced
  level of CC3 in tumor tissue: increased
  levels of Bcl-xL and Bcl-2 in tumor tissue: decreased

## CC1(C)SSC(C)(C)[C@@H](NC(=O)[C@@H](N)Cc2ccc(O)cc2)C(=O)NCC(=O)N[C@@H](Cc2ccccc2)C(=O)N[C@H]1C(=O)O [DPDPE, (D-Pen^2, D-Pen^5)-enkephalin]
[4]
  level of E-cadherin in tumors: increase
  level of N-cadherin in tumors: decrease
  levels of Snail, Slug, and Twist in tumors: reduced
  level of CC3 in tumor tissue: increased
  levels of Bcl-xL and Bcl-2 in tumor tissue: decreased
MDA-MB-468 cells; MDA-MB-468, 24 h
  IC50: 115 ± 1.23 µM
MDA-MB-468 cells; MDA-MB-468, 48 h
  IC50: 118 ± 1.22 µM
MDA-MB-468 cells; MDA-MB-468, 72 h
  IC50: 120 ± 2.19 µM
MDA-MB-231 cells; MDA-MB-231, 24 h
  IC50: 140.4 ± 0.39 µM
MDA-MB-231 cells; MDA-MB-231, 48 h
  IC50: 120.8 ± 0.36 µM
MDA-MB-231 cells; MDA-MB-231, 72 h
  IC50: 119.9 ± 1.07 µM
T47D cells; read-out: Cell Viability IC50 (μM) ± SEM, 24 h
  IC50: 125.1 ± 1.21 µM
T47D cells; read-out: Cell Viability IC50 (μM) ± SEM, 48 h
  IC50: 120.2 ± 1.17 µM
T47D cells; read-out: Cell Viability IC50 (μM) ± SEM, 72 h
  IC50: 120.46 ± 0.04 µM
